Test [1] deals with DYRK1A kinase (Homo sapiens, UniProt Q13627). As to the kind of experiment: DYRK1A kinase activity (Ser/Thr 18 peptide Z-lyte FRET assay).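 Also: kinase activity read as coumarin/fluorescein emission ratio after development step, with unphosphorylated and phosphorylated peptide forms setting 0% and 100% controls, values from dose-response curves.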 Type of test: biochemical. Conditions: recombinant DYRK1A, 30 μM ATP, one hour at room temperature.
Test [2] addresses GSK3β kinase (Homo sapiens, UniProt P49841). As to the kind of experiment: GSK3β kinase activity (Ser/Thr 09 peptide Z-lyte FRET assay). The settings on record: recombinant kinase, 46 μM ATP, one hour at room temperature; read-out: EC50. The format is biochemical.
Test [3] concerns secreted cytokines TNFα, IL-6 and KC-GRO. As to the kind of experiment: Secreted cytokines in Lipopolysaccharide-stimulated BV-2 cells (Table 9 does not say which cytokine). The format is cell-based, mouse. Conditions: Mus musculus, BV-2, 5 h; read-out: EC50.
Test [4] has as its system SW480 colon carcinoma cells. Briefly: Cell viability assay (CellTiter-Glo). The settings on record: Homo sapiens; for EC50: SW480, 96 h; for inhibition at 10 µM: SW480, read-out: percent inhibition at 10 μM.
Test [5] concerns Wnt-responsive Sp5-Luc reporter in SW480 colon carcinoma cells. As to the kind of experiment: Screening assay for Wnt activity (Sp5-Luc reporter gene assay). The settings on record: Homo sapiens; for EC50: SW480; for inhibition at 10 µM: SW480, read-out: percent inhibition at 10 μM. On the technique in general: A reporter such as luciferase makes a cellular process visible.
Test [6] concerns IL-6. Briefly: IL-6 inhibition in LPS-stimulated human peripheral blood mononuclear cells (HTRF). Conditions: Homo sapiens, PBMC; for EC50: 22 h; for inhibition at 10 µM: read-out: percentage in parentheses after EC50 >10.
Test [7] deals with α-smooth muscle actin (aSMA) positive LL29 cells. As to the kind of experiment: Inhibition of the fibrotic process: αSMA staining in TGF-β1 treated LL29 fibroblasts from IPF patients. The settings on record: Homo sapiens, Fibroblast; for EC50: 96 h; for inhibition at 10 µM: read-out: percentage in parentheses after EC50 >10.

Chain of GSK3β kinase (P49841 whole entry): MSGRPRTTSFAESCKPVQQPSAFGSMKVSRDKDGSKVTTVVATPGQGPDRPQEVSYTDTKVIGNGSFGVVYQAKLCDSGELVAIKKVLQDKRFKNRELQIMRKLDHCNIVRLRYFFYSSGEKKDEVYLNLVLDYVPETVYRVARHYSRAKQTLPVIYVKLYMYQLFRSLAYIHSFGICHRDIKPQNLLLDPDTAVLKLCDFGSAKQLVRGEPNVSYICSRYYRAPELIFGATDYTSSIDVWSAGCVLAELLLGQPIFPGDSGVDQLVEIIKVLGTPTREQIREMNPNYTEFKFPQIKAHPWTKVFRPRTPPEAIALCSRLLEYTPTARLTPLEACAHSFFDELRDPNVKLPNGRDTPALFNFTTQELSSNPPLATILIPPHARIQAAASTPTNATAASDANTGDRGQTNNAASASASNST

By EC50 is commonly meant the concentration needed to bring the measured effect to its halfway point. Turning to `CN1CCN(c2cc(C(=O)Nc3cc4cc(-c5cnn(C)c5)ncc4cn3)ccn2)CC1` [Compound 3774, N-(6-(1-Methyl-1H-pyrazol-4-yl)-2,7-naphthyridin-3-yl)-2-(4-methylpiperazin-1-yl)isonicotinamide], the EC50 is 10 nM in test [1]; 397 nM in test [2]; 972 nM in test [3]; 9640 nM in test [4]; greater than 10000 nM in test [5]; greater than 10000 nM in test [6]. The same compound registered an EC50 in test [7] of 5860 nM. Further, the inhibition at 10 µM in test [5] was found to be 54.7%; in test [6] it was 10.8%.
Take `O=C(Nc1cc2nc(-c3cnco3)ccc2cn1)c1ccncc1` [Compound 592, N-(2-(Oxazol-5-yl)-1,6-naphthyridin-7-yl)isonicotinamide]: the EC50 in test [1] was 29 nM; in test [2] it was greater than 10000 nM; in test [3], 449 nM; in test [4], greater than 10000 nM; in test [5], greater than 10000 nM; in test [6] it was greater than 10000 nM. Moreover, in test [7], the EC50 is 9 nM. The inhibition at 10 µM in test [4] turned out to be 11.7%; in test [5] it was 5%; in test [6] it was 25.3%.
On to `CC(F)(F)CN1CCC(C(=O)Nc2cc3nc(-c4cnco4)ccc3cn2)CC1` [Compound 540, 1-(2,2-Difluoropropyl)-N-(2-(oxazol-5-yl)-1,6-naphthyridin-7-yl)piperidine-4-carboxamide], for which the EC50 in test [1] was 22 nM; in test [2], 644 nM; in test [3], no less than 10000 nM; in test [4], greater than 10000 nM; in test [5] it was greater than 10000 nM; in test [6], greater than 10000 nM. This compound also displayed an EC50 in test [7] greater than 10000 nM. The inhibition at 10 µM was 5.3% in test [4], 11.8% in test [5], 3.9% in test [6] and 50% in test [7].
In the case of `CN(C)CCNc1cc(C(=O)Nc2cc3nc(-c4cnn(C)c4)ccc3cn2)ccn1` [Compound 164, 2-((2-(Dimethylamino)ethyl)amino)-N-(2-(1-methyl-1H-pyrazol-4-yl)-1,6-naphthyridin-7-yl)isonicotinamide], the EC50 in test [1] was 6 nM; in test [2], 4010 nM; in test [3] it was 165 nM; in test [4], 2770 nM; in test [5], 585 nM; in test [6] it was greater than 10000 nM. The compound further registered an EC50 in test [7] of 717 nM. Also, in test [6], the inhibition at 10 µM was determined as 17.6%.
As for `CC(C)n1cc(C(=O)Nc2cc3cc(-c4cncc(NC5CCN(C)CC5)n4)cnc3cn2)cn1` [Compound 3627, 1-Isopropyl-N-(3-(6-((1-methylpiperidin-4-yl)amino)pyrazin-2-yl)-1,7-naphthyridin-6-yl)-1H-pyrazole-4-carboxamide], the EC50 is 7 nM in test [1]; greater than 10000 nM in test [2]; 708 nM in test [3]; 3420 nM in test [4]; 1680 nM in test [5]; greater than 10000 nM in test [6]. The same compound registered an EC50 in test [7] greater than 10000 nM. For the same compound, the results for the inhibition at 10 µM in test [6] and in test [7] were 10.6% and 33.4%, respectively.
In the case of `CN1CCN(c2cc(C(=O)Nc3ncc4ccc(-c5cnn(C)c5)cc4n3)ccn2)CC1` [Compound 1054, N-(7-(1-Methyl-1H-pyrazol-4-yl)quinazolin-2-yl)-2-(4-methylpiperazin-1-yl) isonicotinamide], the EC50 in test [1] came out at 8 nM; in test [2] it was 3650 nM; in test [3] it was 1200 nM; in test [4], 719 nM; in test [5], 468 nM; in test [6] it was 3930 nM. This compound also returned an EC50 in test [7] of 2340 nM.
In the case of `Cc1ncc(-c2ccc3cnc(NC(=O)[C@H]4CC[C@H](CO)CC4)nc3c2)o1` [Compound 1447, trans-4-(Hydroxymethyl)-N-(7-(2-methyloxazol-5-yl)quinazolin-2-yl)cyclohexane-1-carboxamide], the EC50 in test [1] is 56 nM; in test [2], 952 nM; in test [3], 605 nM; in test [4], greater than 10000 nM; in test [5] it was 617 nM; in test [6], greater than 10000 nM. In addition, the EC50 in test [7] was greater than 10000 nM. The inhibition at 10 µM in test [4] was found to be 8.5%; in test [6] it was 0%; in test [7], 35.5%.
As to `O=C(Nc1cc2cc(-c3cncc(NC4CCNCC4)n3)cnc2cn1)C1CCOCC1` [Compound 3597, N-(3-(6-(Piperidin-4-ylamino)pyrazin-2-yl)-1,7-naphthyridin-6-yl) tetrahydro-2H-pyran-4-carboxamide], the EC50 in test [1] was 6 nM; in test [2], greater than 10000 nM; in test [3] it was no less than 10000 nM; in test [4], greater than 10000 nM; in test [5] it was greater than 10000 nM; in test [6], greater than 10000 nM. For the same compound, in test [7], the EC50 was greater than 10000 nM. Also, the inhibition at 10 µM turned out to be 8.1% in test [4], 7.6% in test [5], 0% in test [6] and 7.7% in test [7].
On to `Cn1cncc1-c1cnc2cnc(NC(=O)c3ccc4c(c3)CNC4)cc2c1` [Compound 3194, N-(3-(1-Methyl-1H-imidazol-5-yl)-1,7-naphthyridin-6-yl)isoindoline-5-carboxamide], for which the EC50 is 6 nM in test [1]; greater than 10000 nM in test [2]; no less than 10000 nM in test [3]; 4070 nM in test [4]; 4780 nM in test [5]; greater than 10000 nM in test [6]. In test [7], this compound yielded an EC50 greater than 10000 nM. In addition, the results for the inhibition at 10 µM in test [6] and in test [7] were 8.9% and 47.3%, respectively.
Consider `CN1CCC(Oc2cccc(C(=O)Nc3cc4cc(-c5cnco5)ncc4cn3)c2)CC1` [Compound 4218, 3-((1-Methylpiperidin-4-yl)oxy)-N-(6-(oxazol-5-yl)-2,7-naphthyridin-3-yl) benzamide], for which the EC50 in test [1] was 14 nM; in test [2], 7400 nM; in test [3], 5100 nM; in test [4] it was 5960 nM; in test [5], greater than 10000 nM; in test [6] it was greater than 10000 nM. The compound also showed an EC50 in test [7] of 2980 nM. The inhibition at 10 µM turned out to be 24.9% in test [5] and 3.7% in test [6].
As for `Cn1cc(-c2cnc3cnc(NC(=O)CCc4ccccc4)cc3c2)cn1` [Compound 2914, N-(3-(1-Methyl-1H-pyrazol-4-yl)-1,7-naphthyridin-6-yl)-3-phenylpropanamide], the EC50 in test [1] is 28 nM; in test [2], 453 nM; in test [3], 131 nM; in test [4], 692 nM; in test [5], 751 nM; in test [6], greater than 10000 nM. Moreover, a half-maximal response in test [7] (EC50) required 893 nM. Further, the inhibition at 10 µM in test [6] worked out at 5%.
Consider `CN1CCN(c2ncc(C(=O)Nc3cc4nc(-c5cnn(C)c5)ccc4cn3)s2)CC1` [Compound 4539, N-(2-(1-Methyl-1H-pyrazol-4-yl)-1,6-naphthyridin-7-yl)-2-(4-methylpiperazin-1-yl)thiazole-5-carboxamide], for which the EC50 in test [1] is 2 nM; in test [2], 2230 nM; in test [3], 80 nM; in test [4], 782 nM; in test [5], 301 nM; in test [6] it was greater than 10000 nM. In test [7], this compound registered an EC50 of 1100 nM. Also, the inhibition at 10 µM in test [6] is 37.4%.
In the case of `CC(C)OC(=O)N1CCC(n2cc(C(=O)Nc3cc4cc(-c5cnn(C)c5)ncc4cn3)cn2)CC1` [Compound 3861, Isopropyl 4-(4-((6-(1-methyl-1H-pyrazol-4-yl)-2,7-naphthyridin-3-yl)carbamoyl)-1H-pyrazol-1-yl)piperidine-1-carboxylate], the EC50 in test [1] was 5 nM; in test [2], 1060 nM; in test [3], 343 nM; in test [4], 933 nM; in test [5] it was 824 nM; in test [6], greater than 10000 nM. In test [7], the EC50 came to 597 nM. For the same compound, the inhibition at 10 µM in test [6] came out at 5.8%.
Take `CN1CCC(n2cc(C(=O)Nc3cc4nc(-c5cncc6[nH]ccc56)ccc4cn3)cn2)CC1` [Compound 896, N-(2-(1H-Pyrrolo[2,3-c]pyridin-4-yl)-1,6-naphthyridin-7-yl)-1-(1-methylpiperidin-4-yl)-1H-pyrazole-4-carboxamide]: the EC50 in test [1] was 5 nM; in test [2], greater than 10000 nM; in test [3], 266 nM; in test [4] it was 109 nM; in test [5] it was 121 nM; in test [6], 1680 nM. In addition, in test [7], it took 335 nM to reach a half-maximal effect (EC50).
In the case of `CN1CCC2(CC1)CN(c1cc(C(=O)Nc3cc4cc(-c5cnn(C)c5CN5CCCCC5)cnc4cn3)ccn1)C2` [Compound 3032, N-(3-(1-Methyl-5-(piperidin-1-ylmethyl)-1H-pyrazol-4-yl)-1,7-naphthyridin-6-yl)-2-(7-methyl-2,7-diazaspiro[3.5]nonan-2-yl)isonicotinamide], the EC50 in test [1] was 8 nM; in test [2], greater than 10000 nM; in test [3], 127 nM; in test [4], 599 nM; in test [5] it was 607 nM; in test [6] it was 1650 nM. In addition, the EC50 in test [7] is 1580 nM.
